Data: patent US4859688A, “Method for the treatment and prevention of arteriosclerosis with nitrophenyl substituted dihydropyridines” (priority 1984, dated 1989)

Tests used:
rabbit carotid artery [1] = assay: Induction of intimal thickening of rabbit carotid artery by polyethylene cuff treatment (Test 2); assay type: in vivo, male Japanese white rabbits; conditions: intramuscular once a day, 3 weeks, index scale 0-3
Experimental: Induction of intimal thickening of rabbit carotid artery by polyethylene cuff treatment Eight (8) male Japanese white rabbits weighing about 2 kg were used for each test group. The rabbits were anesthetized with 12.5 mg/kg petobarbital and the left carotid artery was isolated with care not to injure the surrounding tissues. A polyethylene cuff (1.5 cm long PE280, inner diameter 2.15 mm, outer diameter 3.25 mm, made by Becton Dickinson & Co.) was placed around the artery according to the technique reported by Rosnowski et al. (CR. Acad, Sci. Paris, 271 (1970) 1467). The rabbits were maintained for 3 weeks on normal diet and water. Test Compounds and vehicles were given intramuscularly once a day starting from the day of cuff-placement. At the end of the 3rd week, the rabbits were heparinized (500 U, i.v.), and the artery was removed, washed free of blood with saline, fixed by immersion in 10% formalin and divided into 8 cross segments about 2 mm long. The segments were embedded in paraffin and cut into transverse sections. These sections were stained with orcein. About 70 transverse sections were prepared from each artery and used for the quantitation of the Arteriosclerotic Index. Quantitation of Arteriosclerotic Index The arterial sections were observed by light microscopy and the Arteriosclerotic Index was scored as follows. 0: No thickening. 1: slight hyperplasia in the subendothelial space with intima-media ratio of about 1/10. 2: several layers of cells in the subendothelial space with intima-media ratio of about 1/5, or parts of the subendothelial space with more hyperplasia. 3: sever hyperplasia throughout the subendothelial space with intima-media ratio of more than 1/3.

[2] = tested on: rat aortic smooth muscle cells (SMC); assay: Inhibition of migration of smooth muscle cell (SMC), modified Boyden chamber (Test 3); assay type: cell-based, rat (male Wistar); conditions: 5% zymosan-activated air pouch exudates as attractant, 8 hours, 37° C.
Experimental: Inhibition of migration of smooth muscle cell (SMC)
Preparation of inflammatory exudates from zymosan-activated air pouch in rats:
Inflammatory exudates were obtained according to the method of Konno and Tsurufuji [Br. J. Pharmacol., 80 (1983) 269]. Seven-week-old male Wistar rats were injected subcutaneously with 12 ml of air on the back to make a pouch. Twenty-four hours later 6 ml of 1.6% (W/V) zymosan suspension in 0.5% (W/V) methyl cellulose solution in saline was injected into the pouch to induce inflammation. After 3 days the inflammatory exudates were collected with pipets and centrifuged for 15 minutes at 2,000 G. The supernatant was stored at -80° C. until used.
Culture of rat aortic smooth muscle cells (SMC):
Rat aortic SMC were isolated and cultured by the method of Ross [J. Cell Biol. 50 (1971) 172]. […]
Migration of SMC was examined in modified Boyden chambers using a filter membrane with pores of 8 μm diameter [Atherosclerosis, 43 (1982) 143]. […] SMC migration was quantitated microscopically by counting the number of cells that migrated into the filter to a depth of 30μm. Ten high-power fields (HPF, x 400) were examined for each filter and cell migration was expressed as cells per 10 HPF.

thoracic aorta = assay: Inhibition of vitamin-D3-induced rise in Ca content of the thoracic aorta (Test 4); conditions: for Ca content of the thoracic aorta (means± standard error): 10μg/kg 1-α hydroxyvitamin D3 orally once a day for 2 weeks; for ED50: Rattus norvegicus, po, 336 h, read-out: ED50, inhibition of vitamin-D3-induced rise in Ca content of the thoracic aorta
rabbit carotid artery [3] = assay: Effect on arteriosclerotic change induced by cuff in rabbit carotid artery (Test 1); assay type: in vivo; conditions: intramuscular, 5 days each week, 3 weeks, index scale 0-3
Description: Effect on arteriosclerotic change induced by cuff in rabbit carotid artery
The arteriosclerosis which is characterized by intimal thickening was made in rabbits (about 2 kg weight) by the following method.
Under pentobarbital anesthesia, the left carotid artery was isolated from the surrounding tissue, put into a cuff (1.5 cm long PE-280) through a longitudinal slit and was returned to the place as it was. Then, the wound was sutured and the rabbits were recovered and fed with normal diet. Three weeks after surgery, the rabbits were anesthetized with pentobarbital and sections were taken of the carotid artery. The part of the artery covered by a cuff was examined under microscope for the arteriosclerotic index which was rated at 0, 1, 2 and 3 according to the degree of intimal thickening. For each rabbit, about 30 transverse sections were taken at random, and the mean arteriosclerotic index was used for the determination of the effect. Test Compound was suspended in 0.5% methyl cellulose and injected intramuscularly for 5 days each week beginning from one day after cuff treatment to one day before sacrifice. The injection volume was adjusted to 0.5 ml/kg.

SMILES	Arteriosclerotic Index (mean±standard error) (rabbit carotid artery [1]; 1 mg/kg)	Arteriosclerotic Index (mean±standard error) (rabbit carotid artery [1]; 10 mg/kg)	IC50 [2]	Ca content of the thoracic aorta (means± standard error) (thoracic aorta; 1 mg/kg per os twice a day)	Ca content of the thoracic aorta (means± standard error) (thoracic aorta; 10 mg/kg per os twice a day)	Ca content of the thoracic aorta (means± standard error) (thoracic aorta; 100 mg/kg per os twice a day)	ED50 (thoracic aorta)	Arteriosclerotic Index (rabbit carotid artery [3]; 1.0 mg/kg)	Arteriosclerotic Index (rabbit carotid artery [3]; 10 mg/kg)	Ca content of the thoracic aorta (means± standard error) (thoracic aorta; 0.1 mg/kg per os twice a day)
COC(=O)C1=C(C)NC(C)=C(C(=O)OC)C1c1ccccc1[N+](=O)[O-] [Nifedipine, Dimethyl ester of 2,6-dimethyl-4-(2-nitrophenyl)-1,4-dihydropyridine-3,5-dicarboxylic acid, reference compound]	0.94 ±0.21	1.19 ±0.26	0.17 nM	93 ± 15 % of control	58 ± 15 % of control	30 ± 10 % of control	23.2 mg/kg			
COC(=O)C1=C(C#N)NC(C)=C(C(=O)OC(C)C)C1c1cccc([N+](=O)[O-])c1 (centres unmarked) [Dihydropyridine Compound A, Isopropyl ester of 6-cyano-5-methoxycarbonyl-2-methyl-4-(3-nitrophenyl)-1,4-dihydropyridine-3-carboxylic acid]	0.85 ±0.15	0.61 ±0.19	0.033 nM	57 ± 13 % of control	27 ± 6 % of control	8 ± 3 % of control	2.2 mg/kg	0.85 ± 0.16	0.61 ± 0.21	94 ± 9 % of control
